{
  "source": "patent US10022397B2",
  "about": "“Treatment of rheumatoid arthritis using noble gas mixtures” (Nobilis Therapeutics, Inc., priority 2016, dated 2018)",
  "system": "patients with disease modifying antirheumatic drug (DMARD)-resistant Rheumatoid Arthritis (RA)",
  "procedure": "20 patients with disease modifying antirheumatic drug (DMARD)-resistant Rheumatoid Arthritis (RA) are chosen for a clinical trial assessing safety and efficacy of 25% Xenon administration with 75% air. A total of 10 liters of gas inhaled. Administration is performed 3 times per week.\nSafety is determined by assessment of hematological biochemical, and coagulation parameters on baseline, and days 30, 60, and 90. Efficacy is assessed by CRP, ESR, anti-citrulline antibody, RF, Quality of Life Questionnaire, 28-joint disease activity score (DAS28), European League against Rheumatism (EULAR) response criteria and immunological parameters. […]\nSafety will be assessed throughout the study with the use of direct evaluation and patient reporting during study visits or patient-initiated telephone contacts. The types, frequencies, severity, and duration of any reported adverse event or abnormalities in clinical laboratory values, physical examinations, vital signs, or special cardiovascular evaluations will be assessed. […]\nTo assess preliminary evidence of efficacy, the following assessments will be analyzed at following time points and compared to baseline values: […]\nQuality of Life Assessment at 1, 2, and 3 Months Measured by: • Change in Rheumatoid Arthritis Quality of Life (RAQoL) questionnaire",
  "data": [
    {"compound": "[Xe]", "note": "[Xenon, xenon]", "values": [
      {"measurement": "clinical and immunological parameters of RA", "setting": "25% Xenon with 75% air, 10 liters inhaled, 3 times per week, DAS28, EULAR, RF, ESR, CRP, anti-citrulline antibody, RAQoL at 1, 2 and 3 months vs baseline", "value": "reduction of clinical and immunological parameters of RA is noted in a statistically significant manner"},
      {"measurement": "treatment associated adverse events", "setting": "human, in vivo", "value": "no significant treatment associated adverse events"}
    ]}
  ]
}
